Laboratory results published in the METLIN SMRT retention time set (Domingo-Almenara et al. 2019).

Assay: gradient 5% acetonitrile 3 min, to 50% in 2 min, to 85% in 15 min, held 3 min, 100 µL/min
Conditions: column: Zorbax Extend-C18 2.1 x 50 mm; eluents: water / acetonitrile, 0.1% formic acid
Method in brief: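 Data were gathered over 3 months by HPLC coupled to a quadrupole time-of-flight mass spectrometer, operated in positive and negative ionization mode. Mixtures of ~100 pure standards ran on a Zorbax Extend-C18 column (2.1 × 50 mm, 1.8 μm) at 100 μL/min, with water and acetonitrile each containing 0.1% formic acid and dead and dwell volumes of 40 μL and 900 μL. Retention time was read from adduct peaks picked by computer and checked manually.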

SMILES | RP-LC retention time
O=C(O)c1cnc(-c2ccccc2)nc1-c1ccncc1 | 653 s
COc1ccc(OC)c(NC(=O)c2cc(S(=O)(=O)N3CCCC(C)C3)cn2C)c1 (centres undefined) | 638 s
O=C(c1sc2ncccc2c1-n1cccc1)N1CCN(Cc2ccccc2)CC1 | 648 s
Cc1ccc(CNC(=O)C2CCN(S(=O)(=O)c3cc(-c4noc(C5CC5)n4)cs3)CC2)cc1 | 998 s
C1CCC(C(CC2CCCCN2)C2CCCCC2)CC1 (centres undefined) | 1060 s
O=C(CN1CCC(c2nc(-c3cccs3)no2)CC1)NCc1ccc(F)cc1 | 684 s
COCC(=O)NC1CCC12CCN(C(=O)c1cccs1)CC2 (centres undefined) | 669 s
CN1C(=O)c2cccnc2Sc2cc(C(=O)N3CCc4ccccc43)ccc21 | 789 s
O=c1c2cc(-c3cccs3)nn2cnn1Cc1nc(-c2ccccc2)no1 | 1050 s
Cc1ccc(NC(=O)NCC(c2cccnc2)c2cn(C)c3ccccc23)cc1C (centres undefined) | 753 s
O=C(NC1CC1)c1snc(-c2ccccn2)c1NC(=O)C1CC1 | 720 s
COc1ccc(OC)c(CNC(=O)c2[nH]c(C)c(S(=O)(=O)N3CCCC3)c2C)c1 | 822 s
CC(C)CNC(=O)N1CCCN(S(C)(=O)=O)CC1 | 615 s
Cc1ccc(S(=O)(=O)N2CCc3nc[nH]c3C2)cc1Cl | 642 s
CCC(C)NC(=O)c1ccc2c(c1)Sc1ncccc1C(=O)N2CC (centres undefined) | 749 s
Clc1cccc(-c2ccc(CNCc3ccc4c(c3)OCO4)o2)c1 | 741 s
Cc1ccccc1-c1nc2cnccn2c1NCCC(=O)NCc1cccs1 | 649 s
Cc1cccc(-c2nnc(-c3cccc(S(=O)(=O)N(C)C)c3)o2)c1 | 982 s
CC(C)C(=O)Nc1cccnc1 | 583 s
Cc1ccccc1OCC(=O)Nc1nnc(C2CC(=O)N(c3ccc(F)cc3)C2)o1 (centres undefined) | 738 s
COc1ccccc1NC(=O)N1CCC(CNC(=O)C(=O)Nc2cccnc2)CC1 | 591 s
Cc1[nH]c2ccccc2c1C(=O)C(=O)Nc1ccccc1F | 846 s
COc1ccccc1-c1cc2c(=O)n(Cc3nc(-c4cccc(OC)c4OC)oc3C)ccn2n1 | 1060 s

SMILES | RP-LC retention time
CCc1noc(-c2ccnc(-n3ncc(C(=O)N4CCCC4)c3C)c2)n1 | 840 s
CCCS(=O)(=O)N1CCC2(CC1)CN(c1ccccc1)C2=O | 812 s
O=C1CCN(C(=O)c2cccs2)CCCCCCN1 | 622 s
CCNC(=O)Cc1nnc(-c2ccc(C)cc2)o1 | 664 s
CC1CCN(c2nc(C(=O)N(C)c3ccccc3)nc3c2cnn3C)CC1 | 864 s
CCCCN(CC)C(=O)C1CCN(S(=O)(=O)c2ccc3c(c2)NC(=O)CO3)CC1 | 784 s
O=C(c1ccc(OCC2CCN(C(=O)C3CCCC3)CC2)cc1)N1CCOCC1 | 764 s
CC(C)N1C(=O)c2cccnc2Sc2cc(C(=O)N3CCN(C)CC3)ccc21 | 582 s
Cc1ccc(C)c(C(=O)N2CCC(c3cc4n(n3)CCCN(C)C4=O)CC2)c1 | 690 s
COc1cccc(CN2CCC(Oc3ccccc3-c3nc(-c4cnccn4)no3)C2)n1 (centres undefined) | 702 s
O=C(Nc1ccc2c(c1)OCCO2)C1CCCN(c2ncnc3c2nc2n3CCCCC2)C1 (centres undefined) | 750 s
Cc1cc(C)c(S(=O)(=O)N2CCC(n3cnc4ccc(C)cc4c3=O)CC2)c(C)c1 | 640 s
CC(C)NC(=O)CSc1nnc(CNC(=O)c2ccc(S(=O)(=O)N(C)C)cc2)o1 | 625 s
N#Cc1cn(CC(=O)NCc2ccc3c(c2)OCCCO3)c2ccccc12 | 842 s
Cc1ccnc(C(=O)Nc2ccc(Nc3ccc(-n4nc(C)c(C)c4C)nn3)cc2)n1 | 692 s
CN1CCN(CCNC(=O)C2c3ccccc3C(=O)N(C3CCCC3)C2c2cccs2)CC1 (centres undefined) | 633 s
COC(=O)C1C(=O)C2=C(CC1C)NC(C)=C(C(=O)OC(C)C)C2c1ccccc1OC (centres undefined) | 908 s
CCc1nc(-c2c(C)cc(C)nc2NC(=O)c2ccccc2Br)no1 | 828 s
CCc1ccccc1S(=O)(=O)N1CC=C(c2cn(C)c3ncccc23)CC1 | 1090 s
O=C(COc1ccccc1)N1CC(n2cnnc2C2CC2)C1 | 620 s
COc1ccc(OC)c(NC(=O)Cn2c(C)cc(-c3nnc(C)o3)c2C)c1 | 776 s
COc1ccc(N2CCN(C(=O)c3[nH]c(C)c(S(=O)(=O)N4CCCC4)c3C)CC2)cc1 | 748 s
COc1cc(-c2noc(-c3nc(-c4ccc(C)cc4)no3)n2)cc(OC)c1OC | 1260 s

SMILES | RP-LC retention time
COc1ccc(OC)c(NC(=O)N2CCCC2c2nc(-c3ccccc3OC)no2)c1 (centres undefined) | 906 s
Cc1sc2ncnc(N3CCCCC3)c2c1C(=O)Nc1cc(F)c(F)c(F)c1 | 1230 s
[O-][n+]1nc2ccccc2c2ccccc21 | 812 s
COc1ccccc1N1CC(c2nc3ccccc3n2CC(=O)N(C(C)C)C(C)C)CC1=O (centres undefined) | 752 s
O=C(Nc1ccccc1F)N1CCC(CCOc2ccccc2)CC1 | 1030 s
CCc1ccc(CNC(=O)Cc2c(C(=O)O)c(C)cn2C)cc1 | 815 s
N#Cc1ccc(C(=O)N2CCOc3ccccc32)cc1 | 864 s
O=C(NC(c1ccccc1)c1nnc(N2CCOCC2)o1)c1cccc(Cl)c1 (centres undefined) | 796 s
Cc1ccc2cccc(OC(=O)N3CCCCCC3)c2n1 | 789 s
Cc1cc(C)c2[nH]c3c(c(=O)c2c1)CN(CC(=O)NCc1ccc2c(c1)OCO2)CC3 | 620 s
COc1ccc(NC(=O)C2CCCN(c3nc4ccccc4nc3C(F)(F)F)C2)c(OC)c1 (centres undefined) | 1190 s
Cc1cc(=O)n(Cc2ccc(F)cc2)c(N2CCSCC2)n1 | 917 s
CCn1cnc2cc(-c3noc(C4CC(=O)N(c5cccc(Cl)c5)C4)n3)ccc21 (centres undefined) | 731 s
CCOc1ccc(CCNC(=O)c2ccc3c(c2)N(CC)C(=O)c2ccccc2O3)cc1OCC | 966 s
O=C(NC1CCCCC1)N1CCCC(Cn2cnc3cccnc32)C1 (centres undefined) | 663 s
Cc1cc(C(=O)N2CCCCCC2c2nnc(C)o2)c(C)o1 (centres undefined) | 755 s
COc1ccc(S(=O)(=O)N2CCCC(C(=O)N3CCc4ccccc4C3)C2)cc1Cl (centres undefined) | 1020 s
CCOC(=O)c1c(C)[nH]c(CCC(=O)NCc2cn[nH]c2C)c1C | 626 s
COc1ccc(OCC2c3cc(OC)c(OC)cc3CCN2C(=O)c2cccc(Cl)c2)cc1 (centres undefined) | 1120 s
Cc1nc(-c2csc(S(=O)(=O)N3CCCC(C(=O)NCc4ccc(N(C)C)cc4)C3)c2)no1 (centres undefined) | 686 s
Cc1ccc(-n2ncc3c(=O)n(Cc4nc(-c5ccc(OC(C)C)cc5)no4)cnc32)cc1Cl | 726 s
COCCCn1cc(C(=O)N2CCCC2)c2nn(-c3ccccc3)c(=O)c-2c1 | 647 s
Cc1nnc2c(=O)n(CC(=O)NCc3cc(F)ccc3F)c3cccnc3n12 | 670 s

SMILES | RP-LC retention time
O=C(Nc1cnc(N2CCCC2)nc1)c1ccccc1C(F)(F)F | 740 s
CC1CCN(CCCNC(=O)C(=O)Nc2ccc3nc4n(c(=O)c3c2)CCCCC4)CC1 | 615 s
CCOc1ccc(C2Cn3nnc(-c4nc(-c5cccc(Br)c5)no4)c3CO2)cc1 (centres undefined) | 1310 s
Cc1c(C(=O)N2CCOCC2)cnn1-c1cc(-c2nc(C(C)C)no2)ccn1 | 840 s
CCn1cc(C(=O)N2CCCc3ccccc32)c2nn(-c3ccccc3)c(=O)c-2c1 | 788 s
CCCCS(=O)(=O)NCCc1noc(-c2ccccc2)n1 | 615 s
Cc1ccc(-n2nc3c(N4CCCC(C(=O)NCc5ccc(Cl)cc5)C4)nnc(C)c3c2C)cc1 (centres undefined) | 789 s
CCCNC(=O)Nc1ccc(NC(=O)N2CCC(C(=O)NCC)CC2)cc1 | 588 s
O=C(NCc1ccc2c(c1)OCO2)C1CCCN(S(=O)(=O)c2c[nH]c(C(=O)N3CCCC3)c2)C1 (centres undefined) | 738 s
O=C(NC1CCCCC1)c1ccc(CN2CCN(C3CCCC3)C(=O)C2=O)cc1 | 831 s
CCOCCCNC(=O)c1ccc(-c2ccc(N3CCCC3)nn2)cc1 | 558 s
CN1c2cc(Cl)ccc2C(=O)NC12CCN(C(=O)Nc1ccccc1)CC2 | 795 s
CCOc1ccc(CNC(=O)C2CCCN(c3cc(=O)n(C)c(=O)n3CC)C2)cc1 (centres undefined) | 812 s
CCS(=O)(=O)Nc1ccc(S(=O)(=O)Nc2nc(C)cc(C)n2)cc1 | 598 s
COc1cc(OC)cc(C(=O)N2CCC3(C2)C(=O)N(C)c2ccccc23)c1 (centres undefined) | 770 s
Cc1cccc(S(=O)(=O)Nc2ccc3c(c2)CCC(=O)N3CC(C)C)c1 | 896 s
COc1cc(C(CC(=O)N2CCCC2)N2Cc3ccccc3C2=O)cc(OC)c1OC (centres undefined) | 661 s
CCc1ccccc1NC(=O)Cc1csc2nc(-c3ccc(C)c(C)c3)cn12 | 928 s
CCOC(=O)c1ccc(NC(=O)Cn2c(=O)n(-c3ccc(F)cc3)c(=O)c3c2cc(C)n3C)cc1 | 893 s
O=C1C2N=NN(Cc3nc(-c4ccc5c(c4)OCO5)no3)C2C(=O)N1c1ccc2c(c1)CCC2 (centres undefined) | 1000 s
